Patent EP0114128A1, “3-Amino-2-oxo-azetidine derivatives containing in position 1 a nitrogen heterocyclic radical, process for their preparation, their use as therapeutical agents and intermediates for their preparation” (priority 1983, dated 1984)
Converted amounts (≈) assume the structure as drawn. Like-named read-outs stand apart in the source and are kept apart here.

Assays:
Test in all cases: In vitro activity, dilution method in liquid medium (MIC)
Type in all cases: cell-based
[1] = tested on: Enterobacter cloacae 1321 E; settings: read-out: concentrations minimales inhibitrices (C. M. I.)
Procedure: (§1) Etude pharmacologiaue des produits de l'invention. Activité in vitro, méthode des dilutions en milieu liquide.
(§2) On prépare une série de tubes dans lesquels on répartit une même quantité de milieu nutritif stérile. On distribue dans chaque tube des quantités croissantes du produit à étudier, puis chaque tube est ensemencé avec une souche bactérienne. Après incubation de vingt-quatre ou quarante-huit heures à l'étuve à 37°C, l'inhibition de la croissance est appréciée par transillumination ce qui permet de déterminer les concentrations minimales inhibitrices (C. M. I.) exprimées en µg/cm3.

Escherichia Coli 078 = settings: read-out: concentrations minimales inhibitrices (C. M. I.)
Procedure: as §1, §2

Escherichia Coli 1507 E = settings: COLI1507E, read-out: concentrations minimales inhibitrices (C. M. I.)
Procedure: as §1, §2

Escherichia Coli 1894 = settings: read-out: concentrations minimales inhibitrices (C. M. I.)
Procedure: as §1, §2

Escherichia Coli DC0 = settings: read-out: concentrations minimales inhibitrices (C. M. I.)
Procedure: as §1, §2

Escherichia Coli DC2 = settings: read-out: concentrations minimales inhibitrices (C. M. I.)
Procedure: as §1, §2

Escherichia Coli TEM = settings: read-out: concentrations minimales inhibitrices (C. M. I.)
Procedure: as §1, §2

[2] = tested on: Klebsiella Aeruginosa 1522 E; settings: read-out: concentrations minimales inhibitrices (C. M. I.)
Procedure: as §1, §2

[3] = tested on: Klebsiella pneumonae 52145; settings: read-out: concentrations minimales inhibitrices (C. M. I.)
Procedure: as §1, §2

Proteus mirabilis A 235 = settings: read-out: concentrations minimales inhibitrices (C. M. I.)
Procedure: as §1, §2

Proteus vulgaris A 232 = settings: read-out: concentrations minimales inhibitrices (C. M. I.)
Procedure: as §1, §2

Providencia DU 48 = settings: read-out: concentrations minimales inhibitrices (C. M. I.)
Procedure: as §1, §2

[4] = tested on: Pseudomonas aeruginosa 1771 m; settings: read-out: concentrations minimales inhibitrices (C. M. I.)
Procedure: as §1, §2

[5] = tested on: Salmonella typhimurium MZ 11; settings: Salmonella enterica, read-out: concentrations minimales inhibitrices (C. M. I.)
Procedure: as §1, §2

Serratia marcesceus 2532 = settings: read-out: concentrations minimales inhibitrices (C. M. I.)
Procedure: as §1, §2

[6] = COLI078, 24 H incubation at 37°C
[7] = COLI078, 48 H incubation at 37°C
[8] = COLI1894, 24 H incubation at 37°C
[9] = COLI1894, 48 H incubation at 37°C
[10] = COLIDC0, 24 H incubation at 37°C
[11] = COLIDC0, 48 H incubation at 37°C
[12] = COLIDC2, 24 H incubation at 37°C
[13] = COLIDC2, 48 H incubation at 37°C

Structure (SMILES) | MIC ([1]; 24 H incubation at 37°C) [µg/mL] | MIC ([1]; 48 H incubation at 37°C) [µg/mL] | MIC (Escherichia Coli 078; [6]) [µg/mL] | MIC (Escherichia Coli 078; [7]) [µg/mL] | MIC (Escherichia Coli 1507 E; 24 H incubation at 37°C) [µg/mL] | MIC (Escherichia Coli 1507 E; 48 H incubation at 37°C) [µg/mL] | MIC (Escherichia Coli 1894; [8]) [µg/mL] | MIC (Escherichia Coli 1894; [9]) [µg/mL] | MIC (Escherichia Coli DC0; [10]) [µg/mL] | MIC (Escherichia Coli DC0; [11]) [µg/mL] | MIC (Escherichia Coli DC2; [12]) [µg/mL] | MIC (Escherichia Coli DC2; [13]) [µg/mL] | MIC (Escherichia Coli TEM; 24 h) [µg/mL] | MIC (Escherichia Coli TEM; 48 h) [µg/mL] | MIC ([2]; 24 H incubation at 37°C) [µg/mL] | MIC ([2]; 48 H incubation at 37°C) [µg/mL] | MIC ([3]; 24 H incubation at 37°C) [µg/mL] | MIC ([3]; 48 H incubation at 37°C) [µg/mL] | MIC (Proteus mirabilis A 235; A235, 24 H incubation at 37°C) [µg/mL] | MIC (Proteus mirabilis A 235; A235, 48 H incubation at 37°C) [µg/mL] | other results
C[C@@H]1[C@H](NC(=O)/C(=N\OC(C)(C)C(=O)O)c2csc(N)n2)C(=O)N1c1nn[nH]n1 (racemic) [Prod. ex.7, (3SR, 4RS) 3-//2-(-2-aminothiazol-4-yl) 2-/(1-carboxy 1-méthyléthoxy) imino/ acétyl/ aminol/4-méthyl 1-(tétrazol-5-yl) 2-azétidinone isomère syn] | 2.5 (≈ 5.9 µM) | 2.5 (≈ 5.9 µM) | 0.3 (≈ 0.709 µM) | 0.6 (≈ 1.42 µM) | 1.2 (≈ 2.83 µM) | 1.2 (≈ 2.83 µM) | 0.6 (≈ 1.42 µM) | 0.6 (≈ 1.42 µM) | 0.6 (≈ 1.42 µM) | 1.2 (≈ 2.83 µM) | 0.6 (≈ 1.42 µM) | 0.6 (≈ 1.42 µM) | 1.2 (≈ 2.83 µM) | 1.2 (≈ 2.83 µM) | 1.2 (≈ 2.83 µM) | 1.2 (≈ 2.83 µM) | 2.5 (≈ 5.9 µM) | 2.5 (≈ 5.9 µM) | 0.15 (≈ 0.354 µM) | 0.15 (≈ 0.354 µM) | MIC (Proteus vulgaris A 232; A232, 24 H incubation at 37°C): 0.08 µg/mL (≈ 0.189 µM); MIC (Proteus vulgaris A 232; A232, 48 H incubation at 37°C): 0.08 µg/mL (≈ 0.189 µM); MIC (Providencia DU 48; DU48, 24 H incubation at 37°C): 0.6 µg/mL (≈ 1.42 µM); MIC (Providencia DU 48; DU48, 48 H incubation at 37°C): 0.6 µg/mL (≈ 1.42 µM); MIC ([4]; 24 H incubation at 37°C): 0.6 µg/mL (≈ 1.42 µM); MIC ([4]; 48 H incubation at 37°C): 0.6 µg/mL (≈ 1.42 µM); MIC ([5]; 24 H incubation at 37°C): 0.6 µg/mL (≈ 1.42 µM); MIC ([5]; 48 H incubation at 37°C): 0.6 µg/mL (≈ 1.42 µM); MIC (Serratia marcesceus 2532; 24 H incubation at 37°C): 1.2 µg/mL (≈ 2.83 µM); MIC (Serratia marcesceus 2532; 48 H incubation at 37°C): 1.2 µg/mL (≈ 2.83 µM)
CO/N=C(\C(=O)N[C@@H]1C(=O)N(c2nn[nH]n2)[C@@H]1C)c1csc(N)n1 (racemic) [Prod. ex. 1, (3SR. 4RS) 3-//2-(2-aminothiazol-4-yl) 2-méthoxyimino acétyl/ amino/-4-méthyl 1-(1H-tétrazol-5-yl)-2-azétidinone isomère syn] | 0.6 (≈ 1.71 µM) | 0.6 (≈ 1.71 µM) | 0.3 (≈ 0.854 µM) | 0.3 (≈ 0.854 µM) | 0.3 (≈ 0.854 µM) | 0.3 (≈ 0.854 µM) | 0.08 (≈ 0.228 µM) | 0.08 (≈ 0.228 µM) | 1.2 (≈ 3.42 µM) | 1.2 (≈ 3.42 µM) | 0.6 (≈ 1.71 µM) | 0.6 (≈ 1.71 µM) | 0.6 (≈ 1.71 µM) | 1.2 (≈ 3.42 µM) | 1.2 (≈ 3.42 µM) | 1.2 (≈ 3.42 µM) | 1.2 (≈ 3.42 µM) | 2.5 (≈ 7.12 µM) | 0.15 (≈ 0.427 µM) | 0.15 (≈ 0.427 µM) | MIC (Proteus vulgaris A 232; A232, 24 H incubation at 37°C): 0.3 µg/mL (≈ 0.854 µM); MIC (Proteus vulgaris A 232; A232, 48 H incubation at 37°C): 0.3 µg/mL (≈ 0.854 µM); MIC (Providencia DU 48; DU48, 24 H incubation at 37°C): 0.6 µg/mL (≈ 1.71 µM); MIC (Providencia DU 48; DU48, 48 H incubation at 37°C): 0.6 µg/mL (≈ 1.71 µM); MIC ([4]; 24 H incubation at 37°C): ≤ 5 µg/mL; MIC ([4]; 48 H incubation at 37°C): ≤ 5 µg/mL; MIC ([5]; 24 H incubation at 37°C): 1.2 µg/mL (≈ 3.42 µM); MIC ([5]; 48 H incubation at 37°C): 1.2 µg/mL (≈ 3.42 µM); MIC (Serratia marcesceus 2532; 24 H incubation at 37°C): 20 µg/mL (≈ 56.9 µM); MIC (Serratia marcesceus 2532; 48 H incubation at 37°C): 20 µg/mL (≈ 56.9 µM)
CO/N=C(\C(=O)N[C@H]1CN(c2nn[nH]n2)C1=O)c1csc(N)n1 [Prod. ex.3, (3S) 3-//2-(2-aminothiazol-4-yl) 2-méthoxyimino acétyl /amino/ 1-(lH-tétrazol-5-yl) 2-azétidinone] | 0.3 (≈ 0.889 µM) | 0.3 (≈ 0.889 µM) | 0.3 (≈ 0.889 µM) | 0.3 (≈ 0.889 µM) | 0.6 (≈ 1.78 µM) | 0.6 (≈ 1.78 µM) | 0.15 (≈ 0.445 µM) | 0.15 (≈ 0.445 µM) | 0.6 (≈ 1.78 µM) | 1.2 (≈ 3.56 µM) | 0.6 (≈ 1.78 µM) | 0.6 (≈ 1.78 µM) | 10 (≈ 29.6 µM) | 10 (≈ 29.6 µM) | 0.3 (≈ 0.889 µM) | 0.3 (≈ 0.889 µM) | 1.2 (≈ 3.56 µM) | 1.2 (≈ 3.56 µM) | 0.6 (≈ 1.78 µM) | 0.6 (≈ 1.78 µM) | MIC (Proteus vulgaris A 232; A232, 24 H incubation at 37°C): 0.3 µg/mL (≈ 0.889 µM); MIC (Proteus vulgaris A 232; A232, 48 H incubation at 37°C): 0.3 µg/mL (≈ 0.889 µM); MIC (Providencia DU 48; DU48, 24 H incubation at 37°C): 0.3 µg/mL (≈ 0.889 µM); MIC (Providencia DU 48; DU48, 48 H incubation at 37°C): 0.6 µg/mL (≈ 1.78 µM); MIC ([4]; 24 H incubation at 37°C): 5 µg/mL (≈ 14.8 µM); MIC ([4]; 48 H incubation at 37°C): 10 µg/mL (≈ 29.6 µM); MIC ([5]; 24 H incubation at 37°C): 0.3 µg/mL (≈ 0.889 µM); MIC ([5]; 48 H incubation at 37°C): 0.3 µg/mL (≈ 0.889 µM); MIC (Serratia marcesceus 2532; 24 H incubation at 37°C): 2.5 µg/mL (≈ 7.41 µM); MIC (Serratia marcesceus 2532; 48 H incubation at 37°C): 5 µg/mL (≈ 14.8 µM)
C[C@@H]1[C@H](NC(=O)/C(=N\OC(F)F)c2csc(N)n2)C(=O)N1c1nn[nH]n1 (racemic) [Prod. ex. 4] | 1.2 (≈ 3.1 µM) | 1.2 (≈ 3.1 µM) | 0.3 (≈ 0.775 µM) | 0.3 (≈ 0.775 µM) | 0.15 (≈ 0.387 µM) | 0.15 (≈ 0.387 µM) | ≤ 0.04 | ≤ 0.04 | 1.2 (≈ 3.1 µM) | 1.2 (≈ 3.1 µM) | ≤ 0.04 | ≤ 0.04 | 0.6 (≈ 1.55 µM) | 1.2 (≈ 3.1 µM) | 1.2 (≈ 3.1 µM) | 1.2 (≈ 3.1 µM) | 5 (≈ 12.9 µM) | 5 (≈ 12.9 µM) | 0.3 (≈ 0.775 µM) | 0.3 (≈ 0.775 µM) | MIC (Proteus vulgaris A 232; A232, 24 H incubation at 37°C): 0.3 µg/mL (≈ 0.775 µM); MIC (Proteus vulgaris A 232; A232, 48 H incubation at 37°C): 0.3 µg/mL (≈ 0.775 µM); MIC (Providencia DU 48; DU48, 24 H incubation at 37°C): 2.5 µg/mL (≈ 6.45 µM); MIC (Providencia DU 48; DU48, 48 H incubation at 37°C): 2.5 µg/mL (≈ 6.45 µM); MIC ([5]; 24 H incubation at 37°C): 1.2 µg/mL (≈ 3.1 µM); MIC ([5]; 48 H incubation at 37°C): 1.2 µg/mL (≈ 3.1 µM); MIC (Serratia marcesceus 2532; 24 H incubation at 37°C): 20 µg/mL (≈ 51.6 µM); MIC (Serratia marcesceus 2532; 48 H incubation at 37°C): 20 µg/mL (≈ 51.6 µM)
